Read-outs that look alike come from different tables or passages of the source.
Key:
[1] = tested on: human breast cancer (MDA-231) cells; experiment: XTT cell proliferation assay, first set of experiments; format: cell-based; settings: 24 h
Description: (§1) The MDA-231 and B16F10 cells were obtained from ATCC (USA). […] The experiments were performed in 35 mm Petri dishes (NUNC, USA). Cisplatin and Taxol were obtained from Sigma (USA). A cell proliferation assay kit was obtained from Biological Industries Ltd., Israel. […] XTT is cleaved to formazan (absorbs at 450-500 nm) by the “succinate-tetrazolium reductase” system of the respiratory chain of the mitochondria and is active only in viable cells. Therefore, the amount of formazan dye (A450 nm) formed directly correlates to the number of metabolically active cells in culture. The XTT assay is widely used for the measurement of cell proliferation in response to growth factors, cytokines, mitogens, nutrients, anti-cancer drugs and physiological mediators.) The media in the Petri dish was replaced by fresh media (3 ml with or without Taxol or Cisplatin), thermo-couples were placed at the center, and the dish cover was replaced by one with attached electrodes. Cell samples without […] treatment were placed in CO2 incubator at 37° C. for 24 hours, while […] treated samples were placed in CO2 incubator at 25° C., also for 24 hours. Final incubation temperature of […] treated samples was 37±0.7° C. due to heating induced by TTFields (as measured by inserted thermo-couples). […] The rate of cell proliferation was calculated as a ratio of the final cell number to the initial cell number (OD1/OD0). […] For those samples that were subjected to TTFields, two-directional 200 kHz sinusoidal TTFields were generated by an appropriate waveform generator and an amplifier. The output of the amplifier was switched between two pairs of outputs every 250 mSec, with the outputs connected to two pairs of electrodes, insulated by a high dielectric constant ceramic (e.g., PMN-PT, EDO Corporation, Utah), positioned in the Petri dish as depicted in FIG. 1. Field intensity in the medium surrounding the cells was measured to be approximately 7 V/cm.

[2] = tested on: mouse melanoma (B16F10) cells; experiment: as above; format: cell-based; settings: 24 h
Description: as §1

[3] = tested on: human non-small cell lung cancer (H1299) cells; format: cell-based
[4] = tested on: MDA-MB-231 cells

## CC(=O)O[C@H]1C(=O)[C@@]2(C)[C@H]([C@H](OC(=O)c3ccccc3)[C@]3(O)C[C@H](OC(=O)[C@H](O)[C@@H](NC(=O)c4ccccc4)c4ccccc4)C(C)=C1C3(C)C)[C@]1(OC(C)=O)CO[C@@H]1C[C@@H]2O [Paclitaxel]
[1]; Taxol 0.05 μM + TTFields 200 kHz approx. 7 V/cm
  cells died under the influence of the combined treatment: about 40%
[1]; Taxol 0.05 μM alone
  reduced cell proliferation as compared with the control: 70%
[2]; Taxol 0.05 μM
  cell proliferation, drug alone compared with drug + TTFields: reduced cell proliferation to a lesser extent
[3]; Paclitaxel + TTFields 1.25 V/cm
  Combination index CI40: 0.73
[3]; Paclitaxel + TTFields 1.25 V/cm and 1.75 V/cm, all concentrations studied
  effect on cell proliferation rate, combination versus drug alone: significant additional decrease in cell proliferation rate
[3]; Paclitaxel + TTFields 1.75 V/cm
  Combination index CI40: 0.98
[3]; Paclitaxel alone at concentrations up to 500 nM
  induction of cell death: not observed
[3]; Paclitaxel alone, concentrations above 200 nM, 24 h
  cell proliferation rate (% of control): 55%
[3]; higher concentrations of Paclitaxel in combination with TTFields
  induction of cell death: cell death is induced

## O=P1(N(CCCl)CCCl)NCCCO1 (centres unmarked) [Cyclophosphamide]
[4]; 30 mM Cyclophosphamide + 1.75 V/cm TTFields applied for 1 hour
  effectiveness of combined treatment: not effective
[4]; 30 mM Cyclophosphamide + 1.75 V/cm TTFields applied for 6 hours or more
  effectiveness of combined treatment: fully effective

## N.N.[Cl][Pt][Cl] [Cisplatin, cis-diamminedichloroplatinum(II)]
[1]; Cisplatin 15 μM + TTFields 200 kHz approx. 7 V/cm
  cell proliferation under combined treatment: complete cell proliferation arrest
[1]; Cisplatin 15 μM alone
  reduced cell proliferation as compared with the control: 63%
[2]; Cisplatin 15 μM
  cell proliferation, drug alone compared with drug + TTFields: reduced cell proliferation to a lesser extent
